From publication PMC6591177, “Small Molecule IL-36γ Antagonist as a Novel Therapeutic Approach for Plaque Psoriasis” (Scientific Reports, 2019)
“Also recorded” adds a separate entry of the source.

Key:
[1] = tested on: human IL-36γ evoked CXCL1 release from Human HaCaT cells; experiment: human IL-36γ evoked CXCL1 release, human HaCaT cells; type: cell-based; details: ± S.D.
Procedure: (§1) The immortalized human keratinocyte cell line HaCaT and mouse fibroblast NIH-3T3 cell line were maintained in culture in DMEM with 10% fetal bovine serum and 1% penicillin/streptomycin added (Sigma). Cells were seeded in 96-well tissue culture plates (Corning) at 25,000 cells per well and allowed to adhere and recover overnight at 37 °C in an incubator. Cells were rinsed with PBS (Sigma) and treated with cytokines diluted in 200 μL/well of the medium (DMEM with 0.5% FBS and 1% penicillin/streptomycin) as indicated. In inhibition mode, the agonist concentration used was at the EC80 for chemokine production and the cells were pre-treated with inhibitors for 30 min prior to adding the agonist. After 24 h of treatment, supernatants were collected and IL-8 and CXCL1[28] levels were assessed using a custom immunoassay (Meso Scale Discovery). EC50/IC50 values were estimated from a four-parameter logistic fit using Prism software (GraphPad).

[2] = tested on: IL-36γ evoked CXCL1 release from Mouse NIH-3T3 cells; experiment: IL-36γ evoked CXCL1 release, mouse NIH-3T3 cells; type: cell-based; details: human IL-36γ evoked CXCL1 release, ± S.D.
Procedure: as §1

human IL-36γ = target: T1, human IL-36γ (Homo sapiens, UniProt Q9NZH8); experiment: Thermal shift assay, human IL-36γ; type: binding; details: 100 μM compound; read-out: increase of melting temperature of human IL-36γ
T1 construct: His6-SUMO-human IL-36γ (18–169); His6-SUMO (N, cleaved yes); made in house; host or cells: E. coli BL21 (DE3)
T1 sequence (Q9NZH8 18-169): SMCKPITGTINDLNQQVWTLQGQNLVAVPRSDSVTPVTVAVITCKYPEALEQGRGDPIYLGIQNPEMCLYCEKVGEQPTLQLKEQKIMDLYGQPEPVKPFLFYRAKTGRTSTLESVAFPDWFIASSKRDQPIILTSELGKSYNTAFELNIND
Procedure: (§2) Thermal shift assays[30] were performed on a Roche LightCycler 480 instrument using Sypro Orange Dye (Invitrogen). Reactions consisted of 0.5–2 µM purified recombinant protein in PBS, pH 7.4, a 1/500 dilution of the stock Sypro Orange reagent, and 100 µM test compounds, resulting in a final DMSO concentration of 1%. The samples were heated from 20 °C to 95 °C at a rate of 0.25 °C per second.

human IL-36α = target: T2, human IL-36α (Homo sapiens, UniProt Q9UHA7); experiment: Thermal shift assay / affinity, human IL-36α; type: binding; details: thermal shift assay at 100 μM (Supplementary Fig. 4)
T2 construct: using recombinant truncated proteins
T2 sequence (Q9UHA7 6-158): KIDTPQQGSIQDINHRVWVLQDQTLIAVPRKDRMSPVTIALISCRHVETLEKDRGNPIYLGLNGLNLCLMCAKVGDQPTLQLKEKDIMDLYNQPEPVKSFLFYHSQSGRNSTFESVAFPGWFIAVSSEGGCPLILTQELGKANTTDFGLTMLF
Procedure: as §2

ΔTm at 100 µM (human IL-36γ): 6.1 °C
SMILES: COC(c1ccccc1)(c1ccccc1)[C@H](Oc1nc(C)cc(-c2ccc(C)c(N)c2)n1)C(=O)O [Compound A-552]
Ki [1]: 31 ± 22 nM | Ki [2]: 54 ± 10 nM | binding / affinity to human IL-36α (human IL-36α): do not bind; also recorded: does not show affinity
